System: NSA mice
Assay: Hypothermia study (block of CP 55,940-induced hypothermia)
Assay type: in vivo
Parameters: Hypothermia 3 mg/kg / Hypothermia 0.3 mg/kg: unit not given here
Details: 0.3 mg/kg
Method: . […] Core body temperatures were then obtained at various time points following CP 55,940 administration. Core body temperature (to the nearest 0.1° C.) was obtained by rectal probe.

Compound | Hypothermia 0.3 mg/kg
O=C(NCc1cccs1)c1ccc2c(c1)N=C(c1ccc(F)cc1)c1ccccc1S2 [drawing 1558] | 19
O=C(NCc1ccco1)c1ccc2c(c1)N=C(c1cccc(Cl)c1)c1ccccc1S2 [drawing 1581] | 24
CC(C)CCNC(=O)c1ccc2c(c1)N=C(c1cccc(Cl)c1)c1ccccc1S2 [drawing 1564] | 35
CC(C)CCNC(=O)c1ccc2c(c1)N=C(c1cccc(F)c1)c1ccccc1S2 [drawing 1602] | 0
CCCCNC(=O)c1ccc2c(c1)N=C(c1ccc(Cl)cc1)c1ccccc1S2 [drawing 1560] | 15
CC(C)CNC(=O)c1ccc2c(c1)N=C(c1ccc(Cl)s1)c1ccccc1S2 [drawing 1578] | 23
CCCCNC(=O)c1ccc2c(c1)N=C(c1ccc(Cl)cc1)c1ccc(F)cc1S2 [drawing 1562] | 11
CC(C)CNC(=O)c1ccc2c(c1)N=C(c1ccc(Cl)cc1F)c1ccccc1S2 [drawing 1576] | 0
O=C(NN1CCCCCC1)c1ccc2c(c1)N=C(c1ccc(Cl)cc1F)c1ccccc1S2 [drawing 1563] | 2
O=C(NCc1cccnc1)c1ccc2c(c1)N=C(c1cccc(Br)c1)c1ccccc1S2 [drawing 1641] | 0
O=C(NCCCC(F)(F)F)c1ccc2c(c1)N=C(c1ccc(Cl)s1)c1ccccc1S2 [drawing 1554] | 11
O=C(NCc1ccco1)c1ccc2c(c1)N=C(c1ccc(F)cc1)c1ccccc1S2 [drawing 1553] | −11
O=C(NCc1cccc(Cl)c1)c1ccc2c(c1)N=C(N1CCC(F)(F)CC1)c1ccccc1S2 [drawing 1652] | −31

Same assay, conditions: 3 mg/kg

Compound | Hypothermia 3 mg/kg
COc1cccc(C2=Nc3cc(C(=O)NC4CCC(F)(F)CC4)ccc3Sc3ccccc32)n1 [drawing 1572] | 19
O=C(NCc1cccnc1)c1ccc2c(c1)N=C(c1ccc(Cl)cc1)c1ccccc1S2 [drawing 1633] | 27
O=C(NN1CCCCC1)c1ccc2c(c1)N=C(C1CCCCC1)c1ccccc1S2 [drawing 1592] | 69
O=C(NCc1cccs1)c1ccc2c(c1)N=C(c1ccc(F)cc1)c1ccccc1S2 [drawing 1558] | 90
O=C(NCc1ccco1)c1ccc2c(c1)N=C(c1cccc(Cl)c1)c1ccccc1S2 [drawing 1581] | 67
CC(C)CCNC(=O)c1ccc2c(c1)N=C(c1cccc(Cl)c1)c1ccccc1S2 [drawing 1564] | 64
CC(C)CNC(=O)c1ccc2c(c1)N=C(c1ccc(Cl)cc1)c1ccc(F)cc1S2 [drawing 1556] | 41
CC(C)CCNC(=O)c1ccc2c(c1)N=C(c1cccc(F)c1)c1ccccc1S2 [drawing 1602] | 67
O=C(NCc1cccs1)c1ccc2c(c1)N=C(c1ccc(Cl)s1)c1ccccc1S2 [drawing 1612] | 47
CCCCNC(=O)c1ccc2c(c1)N=C(c1ccc(Cl)cc1)c1ccccc1S2 [drawing 1560] | 82
CC(C)CNC(=O)c1ccc2c(c1)N=C(c1ccc(Cl)s1)c1ccccc1S2 [drawing 1578] | 73
CCCCNC(=O)c1ccc2c(c1)N=C(c1ccc(Cl)s1)c1ccc(Cl)cc1S2 [drawing 1589] | 1
COc1cccc(C2=Nc3cc(C(=O)NCCCC(F)(F)F)ccc3Sc3ccccc32)n1 [drawing 1566] | 46
CCCCNC(=O)c1cnc2c(n1)N=C(c1ccccc1)c1ccccc1S2 [drawing 1607] | 7
CC(C)CNC(=O)c1ccc2c(c1)N=C(c1cccc(Cl)c1)c1ccccc1S2 [drawing 1646] | 54
CCCCNC(=O)c1ccc2c(c1)N=C(c1ccc(Cl)s1)c1cc(Cl)ccc1S2 [drawing 1577] | −9
O=C(NN1CCCCC1)c1ccc2c(c1)N=C(c1ccc(Cl)s1)c1ccccc1S2 [drawing 1561] | 42
CCCCNC(=O)c1ccc2c(c1)N=C(c1ccc(Cl)cc1)c1ccc(F)cc1S2 [drawing 1562] | 53

Compound | Hypothermia 3 mg/kg
Cc1ccsc1C1=Nc2cc(C(=O)NCc3ccco3)ccc2Sc2ccccc21 [drawing 1639] | 30
CCCCNC(=O)c1ccc2c(c1)N=C(c1ccc(Br)cn1)c1ccccc1S2 [drawing 1555] | 80
CC(C)CNC(=O)c1ccc2c(c1)N=C(c1ccc(Cl)cc1F)c1ccccc1S2 [drawing 1576] | 71
CCCCNC(=O)c1ccc2c(c1)N=C(c1ccc(Cl)cc1)c1ccc(Cl)cc1S2 [drawing 1617] | 30
O=C(NN1CCCCCC1)c1ccc2c(c1)N=C(c1ccc(Cl)cc1F)c1ccccc1S2 [drawing 1563] | 54
CC(C)CNC(=O)c1ccc2c(c1)N=C(c1ccc(Cl)s1)c1ccc(F)cc1S2 [drawing 1644] | 12
CCCCNC(=O)c1ccc2c(c1)N=C(c1ccc(Cl)cc1)c1ccccc1[S+]2[O-] (centres unmarked) [drawing 1619] | 31
O=C(NC1CCC(F)(F)CC1)c1ccc2c(c1)N=C(c1cccc(F)c1)c1ccccc1S2 [drawing 1608] | 46
O=C(NCc1cccc(Cl)c1)c1ccc2c(c1)N=C(c1ccc(F)cc1)c1ccccc1S2(=O)=O [drawing 1571] | 45
O=C(NCc1cccnc1)c1ccc2c(c1)N=C(c1cccc(Br)c1)c1ccccc1S2 [drawing 1641] | 56
CC(C)CNC(=O)c1ccc2c(c1)N=C(c1ccc(Cl)cn1)c1ccc(F)cc1S2 [drawing 1625] | 27
O=C(NCCCC(F)(F)F)c1ccc2c(c1)N=C(c1ccc(Cl)s1)c1ccccc1S2 [drawing 1554] | 73
O=C(NCc1ccco1)c1ccc2c(c1)N=C(c1ccc(F)cc1)c1ccccc1S2 [drawing 1553] | 90
O=C(NC1CCC(F)(F)CC1)c1ccc2c(c1)N=C(c1ccc(Cl)s1)c1ccccc1S2 [drawing 1596] | 51
O=C(NCc1cccc(Cl)c1)c1ccc2c(c1)N=C(N1CCC(F)(F)CC1)c1ccccc1S2 [drawing 1652] | 19
Cc1csc(CNC(=O)c2ccc3c(c2)N=C(c2sccc2C)c2ccccc2S3)c1 [drawing 1610] | −2
Cc1ccc(CNC(=O)c2ccc3c(c2)N=C(c2ccc(Cl)s2)c2ccccc2S3)o1 [drawing 1594] | 16

Same assay, conditions: block of CP 55,940-induced hypothermia

Compound | Hypothermia ID50
O=C(NCc1cccs1)c1ccc2c(c1)N=C(c1ccc(F)cc1)c1ccccc1S2 [drawing 1558] | 1 mg/kg
O=C(NCc1ccco1)c1ccc2c(c1)N=C(c1cccc(Cl)c1)c1ccccc1S2 [drawing 1581] | 1 mg/kg
CCCCNC(=O)c1ccc2c(c1)N=C(c1ccc(Cl)cc1)c1ccccc1S2 [drawing 1560] | 0.79 mg/kg
O=C(NCCCC(F)(F)F)c1ccc2c(c1)N=C(c1ccc(Cl)s1)c1ccccc1S2 [drawing 1554] | 1.7 mg/kg
O=C(NCc1ccco1)c1ccc2c(c1)N=C(c1ccc(F)cc1)c1ccccc1S2 [drawing 1553] | 1.2 mg/kg

System: not listed separately
Assay: Clearance study, liver microsomes (rats)
Details: rat, pH 7.4

microsomal CLint at 1 μM | Compound
274 µL/min/mg | O=C(NCCc1ccccc1)c1ccc2c(c1)N=C(c1ccc(F)cc1)c1ccccc1S2 [drawing 1773]
242 µL/min/mg | O=C(NCc1ccc(F)cc1)c1ccc2c(c1)N=C(c1ccccc1)c1ccccc1S2 [drawing 1787]
179 µL/min/mg | CC(CNC(=O)c1ccc2c(c1)N=C(c1ccc(Cl)cc1)c1ccccc1S2)c1ccccc1 (centres unmarked) [drawing 1743]
725 µL/min/mg | Cc1csc(CNC(=O)c2ccc3c(c2)N=C(c2cccc(C)n2)c2ccccc2S3)c1 [drawing 1727]
670 µL/min/mg | O=C(NCCc1ccc(Cl)cc1)c1ccc2c(c1)N=C(N1CCC(F)CC1)c1ccccc1S2 [drawing 1734]
5 µL/min/mg | O=C(NCc1ccc(Cl)cc1Cl)c1ccc2c(c1)N=C(c1ccc(Cl)cc1)c1ccccc1S2 [drawing 1796]
63 µL/min/mg | CC(C)CNC(=O)c1ccc2c(c1)N=C(c1ccc(Cl)cc1)c1ccc(F)cc1S2 [drawing 1657]
160 µL/min/mg | Cc1csc(CNC(=O)c2ccc3c(c2)N=C(c2cccc(F)c2)c2ccccc2S3)c1 [drawing 1709]
105 µL/min/mg | O=C(NCCCC(F)(F)F)c1ccc2c(c1)N=C(c1ccc(Cl)cc1F)c1ccccc1S2 [drawing 1653]
56 µL/min/mg | CC(C)CNC(=O)c1ccc2c(c1)N=C(c1ccc(Cl)s1)c1ccc(Cl)cc1S2 [drawing 1679]
178 µL/min/mg | O=C(NCc1ccccc1Cl)c1ccc2c(c1)N=C(c1ccccc1)c1ccccc1S2 [drawing 1780]
135 µL/min/mg | CC(C)CNC(=O)c1ccc2c(c1)N=C(c1ccc(Cl)cn1)c1ccc(Cl)cc1S2 [drawing 1806]
116 µL/min/mg | O=C(NCCc1cccc(Cl)c1)c1ccc2c(c1)N=C(c1ccc(Cl)cc1)c1ccccc1S2 [drawing 1766]
230 µL/min/mg | O=C(NCCc1ccc(Cl)cc1)c1ccc2c(c1)N=C(C1CCCCC1)c1ccccc1S2 [drawing 1737]
86 µL/min/mg | O=C(NCCCC(F)(F)F)c1ccc2c(c1)N=C(c1ccc(Cl)cc1)c1ccccc1S2 [drawing 1703]
61 µL/min/mg | O=C(NCc1cccc(Cl)c1)c1ccc2c(c1)N=C(c1cccc(Cl)c1)c1cc(F)ccc1S2 [drawing 1805]
63 µL/min/mg | CCCCNC(=O)c1ccc2c(c1)N=C(c1cccc(Cl)c1)c1cc(F)ccc1S2 [drawing 1682]
297 µL/min/mg | Cc1ccsc1C1=Nc2cc(C(=O)NCCCC(F)(F)F)ccc2Sc2ccccc21 [drawing 1701]
17 µL/min/mg | O=C(NCc1ccc(F)cc1)c1ccc2c(c1)N=C(c1ccc(Cl)cc1)c1ccccc1S2(=O)=O [drawing 1776]
124 µL/min/mg | Cc1ccc(CNC(=O)c2ccc3c(c2)N=C(c2ccc(Cl)s2)c2ccccc2S3)o1 [drawing 1697]
210 µL/min/mg | CCN(CCNC(=O)c1ccc2c(c1)N=C(c1ccc(Cl)cc1)c1ccccc1S2)c1ccccc1 [drawing 1698]
126 µL/min/mg | O=C(NCCc1cccc(Cl)c1)c1ccc2c(c1)N=C(c1ccc(F)cc1)c1ccccc1S2 [drawing 1768]
36 µL/min/mg | O=C(NCc1ccccc1Br)c1ccc2c(c1)N=C(c1ccc(Cl)cc1)c1ccccc1S2 [drawing 1788]
79 µL/min/mg | CCCCNC(=O)c1ccc2c(c1)N=C(c1ccc(Cl)cc1)c1ccc(F)cc1S2 [drawing 1663]
267 µL/min/mg | CC(CNC(=O)c1ccc2c(c1)N=C(C1CCCCC1)c1ccccc1S2)c1ccccc1 (centres unmarked) [drawing 1769]
39 µL/min/mg | Cc1ccc(N2CCN(C(=O)c3ccc4c(c3)N=C(c3ccc(Cl)cc3)c3ccccc3S4)CC2)c(C)c1 [drawing 1808]
122 µL/min/mg | O=C(NCCc1ccc(Cl)cc1)c1ccc2c(c1)N=C(c1ccc(Cl)cc1)c1ccccc1S2 [drawing 1807]

System: not listed separately
Assay: Clearance study, liver microsomes (human)
Details: pH 7.4

microsomal CLint at 1 μM | Compound
109 µL/min/mg | O=C(NCCc1ccccc1)c1ccc2c(c1)N=C(c1ccc(F)cc1)c1ccccc1S2 [drawing 1773]
73 µL/min/mg | O=C(NCc1ccc(F)cc1)c1ccc2c(c1)N=C(c1ccccc1)c1ccccc1S2 [drawing 1787]
62 µL/min/mg | CC(CNC(=O)c1ccc2c(c1)N=C(c1ccc(Cl)cc1)c1ccccc1S2)c1ccccc1 (centres unmarked) [drawing 1743]
113 µL/min/mg | Cc1csc(CNC(=O)c2ccc3c(c2)N=C(c2cccc(C)n2)c2ccccc2S3)c1 [drawing 1727]
476 µL/min/mg | O=C(NCCc1ccc(Cl)cc1)c1ccc2c(c1)N=C(N1CCC(F)CC1)c1ccccc1S2 [drawing 1734]
1 µL/min/mg | O=C(NCc1ccc(Cl)cc1Cl)c1ccc2c(c1)N=C(c1ccc(Cl)cc1)c1ccccc1S2 [drawing 1796]
11 µL/min/mg | CC(C)CNC(=O)c1ccc2c(c1)N=C(c1ccc(Cl)cc1)c1ccc(F)cc1S2 [drawing 1657]
42 µL/min/mg | Cc1csc(CNC(=O)c2ccc3c(c2)N=C(c2cccc(F)c2)c2ccccc2S3)c1 [drawing 1709]
14 µL/min/mg | O=C(NCCCC(F)(F)F)c1ccc2c(c1)N=C(c1ccc(Cl)cc1F)c1ccccc1S2 [drawing 1653]
5 µL/min/mg | CC(C)CNC(=O)c1ccc2c(c1)N=C(c1ccc(Cl)s1)c1ccc(Cl)cc1S2 [drawing 1679]
57 µL/min/mg | O=C(NCc1ccccc1Cl)c1ccc2c(c1)N=C(c1ccccc1)c1ccccc1S2 [drawing 1780]
13 µL/min/mg | CC(C)CNC(=O)c1ccc2c(c1)N=C(c1ccc(Cl)cn1)c1ccc(Cl)cc1S2 [drawing 1806]
56 µL/min/mg | O=C(NCCc1cccc(Cl)c1)c1ccc2c(c1)N=C(c1ccc(Cl)cc1)c1ccccc1S2 [drawing 1766]
138 µL/min/mg | O=C(NCCc1ccc(Cl)cc1)c1ccc2c(c1)N=C(C1CCCCC1)c1ccccc1S2 [drawing 1737]
13 µL/min/mg | O=C(NCCCC(F)(F)F)c1ccc2c(c1)N=C(c1ccc(Cl)cc1)c1ccccc1S2 [drawing 1703]
10 µL/min/mg | O=C(NCc1cccc(Cl)c1)c1ccc2c(c1)N=C(c1cccc(Cl)c1)c1cc(F)ccc1S2 [drawing 1805]
16 µL/min/mg | CCCCNC(=O)c1ccc2c(c1)N=C(c1cccc(Cl)c1)c1cc(F)ccc1S2 [drawing 1682]
379 µL/min/mg | Cc1ccsc1C1=Nc2cc(C(=O)NCCCC(F)(F)F)ccc2Sc2ccccc21 [drawing 1701]
13 µL/min/mg | O=C(NCc1ccc(F)cc1)c1ccc2c(c1)N=C(c1ccc(Cl)cc1)c1ccccc1S2(=O)=O [drawing 1776]
30 µL/min/mg | Cc1ccc(CNC(=O)c2ccc3c(c2)N=C(c2ccc(Cl)s2)c2ccccc2S3)o1 [drawing 1697]
157 µL/min/mg | CCN(CCNC(=O)c1ccc2c(c1)N=C(c1ccc(Cl)cc1)c1ccccc1S2)c1ccccc1 [drawing 1698]
37 µL/min/mg | O=C(NCCc1cccc(Cl)c1)c1ccc2c(c1)N=C(c1ccc(F)cc1)c1ccccc1S2 [drawing 1768]
10 µL/min/mg | O=C(NCc1ccccc1Br)c1ccc2c(c1)N=C(c1ccc(Cl)cc1)c1ccccc1S2 [drawing 1788]
9 µL/min/mg | CCCCNC(=O)c1ccc2c(c1)N=C(c1ccc(Cl)cc1)c1ccc(F)cc1S2 [drawing 1663]
125 µL/min/mg | CC(CNC(=O)c1ccc2c(c1)N=C(C1CCCCC1)c1ccccc1S2)c1ccccc1 (centres unmarked) [drawing 1769]
37 µL/min/mg | Cc1ccc(N2CCN(C(=O)c3ccc4c(c3)N=C(c3ccc(Cl)cc3)c3ccccc3S4)CC2)c(C)c1 [drawing 1808]
54 µL/min/mg | O=C(NCCc1ccc(Cl)cc1)c1ccc2c(c1)N=C(c1ccc(Cl)cc1)c1ccccc1S2 [drawing 1807]
